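The compound was tested at five concentrations on cells cultured in 96-well plates, with a 48-hour exposure period. The concentration for 50% growth inhibition is given as GI50.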 Calls of active or inactive are those of the source. Rule as the data show it: active = GI50 up to about 1.1 µM and inactive = higher.
Assays:
Test in all cases: NCI-60 cell line screen, 48 h
Hs-578T = test system: Hs-578T
BT-549 = test system: BT-549
LXFL 529 = test system: LXFL 529
DMS-273 = test system: DMS-273
DMS-114 = test system: DMS-114
DLD-1 = test system: DLD-1
XF498 = test system: XF498
SNB-78 = test system: SNB-78

Cc1nc2c(O)nc3ccccc3c2o1
GI50 (Hs-578T): > 100 µM (inactive)
GI50 (BT-549): > 100 µM (inactive)

N#CC(c1ccc(O)cc1)N1CCN(C(C#N)c2ccc(O)cc2)CC1 (stereo not drawn)
GI50 (Hs-578T): 27.7 µM (inactive)
GI50 (BT-549): > 72.3 µM (inactive)

CC1=C(C)CC2C(=O)N(c3cc(C(C)(C)C)ccc3C(C)(C)C)C(=O)C2C1 (stereo not drawn)
GI50 (Hs-578T): 5.82 µM (inactive)
GI50 (BT-549): 24.7 µM (inactive)

CCOC(=O)C(NC(=O)OC(C)(C)C)C(=O)OCC
GI50 (Hs-578T): > 100 µM (inactive)
GI50 (BT-549): > 100 µM (inactive)

Cc1ccc2c(CC(=O)O)cc(=O)oc2c1
GI50 (LXFL 529): > 100 µM (inactive)
GI50 (DMS-273): 37.2 µM (inactive)
GI50 (DMS-114): > 100 µM (inactive)
GI50 (DLD-1): > 100 µM (inactive)
GI50 (XF498): 2.86 µM (inactive)

N#Cc1nc(C#N)n(S(=O)(=O)c2ccccc2)c1NS(=O)(=O)c1ccccc1
GI50 (Hs-578T): > 100 µM (inactive)
GI50 (BT-549): > 100 µM (inactive)

COc1c(Br)cc2ccccc2c1-c1c(OC)c(Br)cc2ccccc12
GI50 (Hs-578T): > 100 µM (inactive)

c1ncn(C23C4C5C6C4C2C6C53)n1 (stereo not drawn)
GI50 (Hs-578T): > 100 µM (inactive)

Oc1ccc(I)c2cccnc12
GI50 (LXFL 529): 4.11 µM (inactive)
GI50 (DMS-273): 2.04 µM (inactive)
GI50 (SNB-78): 56.9 µM (inactive)
GI50 (DLD-1): 3.99 µM (inactive)
GI50 (XF498): 38.9 µM (inactive)

COc1ccc(N/N=C2\CCOc3ccc(C)cc3C2=O)cc1
GI50 (Hs-578T): 25.1 µM (inactive)
GI50 (BT-549): 24.1 µM (inactive)

CN(C)Cc1cc(/N=N/c2ccccc2Cl)cc(CN(C)C)c1O
GI50 (Hs-578T): 28.1 µM (inactive)
GI50 (BT-549): 53.1 µM (inactive)

COC(=O)/C(=N\NC(=O)c1ccccc1O)C(C#N)c1ccccc1 (stereo not drawn)
GI50 (LXFL 529): 21.5 µM (inactive)
GI50 (DMS-273): 19 µM (inactive)
GI50 (SNB-78): 23.4 µM (inactive)
GI50 (DMS-114): 15.9 µM (inactive)
GI50 (DLD-1): 24 µM (inactive)
GI50 (XF498): 17.3 µM (inactive)

CN1Cc2ccccc2S(=O)(=O)n2cccc2C1=O
GI50 (Hs-578T): > 100 µM (inactive)
GI50 (BT-549): > 100 µM (inactive)

CCOC(=O)c1c(N2CCCC2)[nH]c(=O)c(C(c2c(O)c(C(=O)OCC)c(N3CCCC3)[nH]c2=O)C(C)C)c1O
GI50 (Hs-578T): 42.1 µM (inactive)
GI50 (BT-549): 32.4 µM (inactive)

CCc1cc(Cc2cc(CC)c(NC(=O)C(=O)CC(=O)c3sc(-c4cccnc4)nc3C)c(CC)c2)cc(CC)c1NC(=O)C(=O)CC(=O)c1sc(-c2cccnc2)nc1C
GI50 (Hs-578T): > 100 µM (inactive)
GI50 (BT-549): > 100 µM (inactive)

COc1cc(OC)c(OC)cc1/C=N/NC(=O)N/N=C/c1cc(OC)c(OC)cc1OC
GI50 (LXFL 529): > 100 µM (inactive)
GI50 (DMS-273): > 100 µM (inactive)
GI50 (SNB-78): > 100 µM (inactive)
GI50 (DMS-114): > 100 µM (inactive)
GI50 (XF498): 72.4 µM (inactive)

COC(=O)c1ccccc1C1CN=NC12Cc1ccc(C)cc1C2=O (stereo not drawn)
GI50 (Hs-578T): 41.5 µM (inactive)
GI50 (BT-549): 47.9 µM (inactive)

O=C1CC2(CCNCC2)C(=O)N1N1CCOCC1
GI50 (Hs-578T): > 100 µM (inactive)
GI50 (BT-549): > 100 µM (inactive)

BrC(Br)=C1C(=C(Br)Br)C(Br)C1Br (stereo not drawn)
GI50 (Hs-578T): 2.51 µM (inactive)
GI50 (LXFL 529): 0.439 µM (active)
GI50 (DMS-273): 0.126 µM (active)
GI50 (SNB-78): 1.32 µM (inactive)
GI50 (BT-549): 0.327 µM (active)
GI50 (DMS-114): 0.256 µM (active)
GI50 (DLD-1): 0.573 µM (active)

C/C(=C/CC[C@](C)(OC1OC(CO)C(O)C(O)C1O)[C@H]1CC[C@]2(C)[C@@H]1CC[C@@H]1[C@@]3(C)CC[C@H](O)C(C)(C)[C@@H]3C[C@H](O)[C@]12C)CO (stereo partly drawn)
GI50 (Hs-578T): 16.2 µM (inactive)
GI50 (BT-549): 12.5 µM (inactive)

Cc1ccc(NC(=O)C(=O)Cc2cc[n+]([O-])cc2)cc1
GI50 (LXFL 529): > 100 µM (inactive)
GI50 (DMS-273): > 100 µM (inactive)
GI50 (SNB-78): > 100 µM (inactive)
GI50 (DMS-114): > 100 µM (inactive)
GI50 (DLD-1): > 100 µM (inactive)
GI50 (XF498): > 100 µM (inactive)

Cc1ccc(-c2nc(N/N=C/c3ccc(O)cc3)c3ccccc3n2)cc1
GI50 (Hs-578T): 35.7 µM (inactive)
GI50 (BT-549): 28 µM (inactive)

Cc1c2ccccc2c(C)c2c3c(ccc12)C(=O)C=CC3=O
GI50 (LXFL 529): 17.3 µM (inactive)
GI50 (DMS-273): 64.7 µM (inactive)
GI50 (SNB-78): 16.3 µM (inactive)
GI50 (DMS-114): 11.8 µM (inactive)
GI50 (DLD-1): 18.5 µM (inactive)
GI50 (XF498): 17 µM (inactive)

COP(=O)(CC(=O)C1OC(C)(C)OC1C(O)COCc1ccccc1)OC (stereo not drawn)
GI50 (LXFL 529): > 100 µM (inactive)
GI50 (DMS-273): > 100 µM (inactive)
GI50 (SNB-78): > 100 µM (inactive)
GI50 (DMS-114): > 100 µM (inactive)
GI50 (DLD-1): > 100 µM (inactive)

N#CCCN(CCC#N)c1ccc(C(=N/c2ccc(Cl)cc2)/N=N/c2ccccc2)cc1
GI50 (Hs-578T): > 100 µM (inactive)
GI50 (BT-549): 17.5 µM (inactive)

Cc1ccc(S(=O)(=O)CC2CCCn3c2c(C#N)c2ccccc23)cc1 (stereo not drawn)
GI50 (Hs-578T): > 100 µM (inactive)
GI50 (BT-549): > 100 µM (inactive)

CC1(C)C[C@H](O)[C@H](O)[C@]23C(=O)O[C@H](O)[C@H]2C(C=O)=CC[C@@H]13
GI50 (Hs-578T): > 100 µM (inactive)
GI50 (BT-549): > 100 µM (inactive)

CC(=O)NC1C(OCc2ccccc2)OC(CO)C(O)C1OC(C)C(=O)NC(C(=O)N[C@@H](CCC(=O)NCCNCCNc1c2ccccc2nc2cccc([N+](=O)[O-])c12)C(N)=O)C(C)C (stereo partly drawn)
GI50 (Hs-578T): > 100 µM (inactive)
GI50 (BT-549): > 100 µM (inactive)
